{"source": "paper PMC6838142", "about": "“Nano-Antagonist Alleviates Inflammation and Allows for MRI of Atherosclerosis” (Nanotheranostics, 2019)", "key": {"[1]": {"system": "bone marrow derived monocytes, CCL2-induced migration", "assay": "CCL2-induced chemotaxis assay", "assay_type": "cell-based, mouse", "design": "cell velocity / distance traveled / chemotactic index: dose or concentration left out as unconfirmed", "procedure": "Chemotaxis assays were performed using IBIDI µ-Slides as per the manufacturer's instructions and the recently published guide detailing the protocol. […] Cells were allowed to attach for 3 h at 37 °C, washed with 0.2 mL warm cell culture medium using a pipette tip inserted into µ-channel port, following which 100 nM recombinant mouse CCL2 protein was added as a chemoattractant (or omitted in control slides) to the one of side reservoirs. Cell movement was recorded for a duration of 12 h via phase video-microscopy in a stage-top humidified incubator at 37 °C and 5% CO2 atmosphere. Analysis was performed using the ImageJ IBIDI tracking tool, available free of charge at https://ibidi.com."}, "[2]": {"system": "nanoparticle-targeted cells in atherosclerotic plaque", "assay": "mRNA analysis of laser-captured nanoparticle-positive plaque areas", "assay_type": "in vivo, mouse", "conditions": "single dose, 24 h, CCTV vs VTCC, 3-4 animals", "procedure": "Twenty-four hours after nanoparticle injection (see above), mice were euthanized and abdominal aortas were isolated and embedded in Optimal Cutting Temperature compound. After cryotome-sectioning, resulting in 20-30 slides per mouse, 15 slides were sent to Ohio State laser capture microdissection core lab for capture and analysis. The rest of the slides were processed as follows: after fixation in methanol:acetone 50:50 at -20 °C, slides were hydrated in PBS, blocked for 30 min in fish serum (Aqua Block) and stained for 1 h with primary antibodies against F4/80 followed washing and staining with HRP-conjugated secondary antibody for 30 min. DAB peroxidase kit was then used as per manufacturer's instructions followed by mounting. DAB and antibody staining (but not wash steps) was omitted in slides designated for nanoparticle fluorescence visualization. Nanoparticles fluorescence was visualized with Zeiss 510 LSM-meta confocal microscope and 20x objective. DAB F4/80 staining was visualized with Nikon FN1 microscope and same power objective."}, "RAW 264.7 cells": {"system": "RAW 264.7 cells", "assay": "Gene expression analysis in LPS-stimulated RAW cells", "assay_type": "cell-based, mouse", "conditions": "1 µM, 24 h, LPS 100 ng/mL; vs VTCC or vehicle", "procedure": "RAW 264.7 cells were seeded in 24-well plates at 1.0 x 10^5 per well with LPS (100 ng/mL) and allowed to attach overnight. After a quick wash with PBS, RNA was isolated from cells following the Trizol method. Next, RNA was reverse transcribed to cDNA, and amplified by the polymerase chain reaction (PCR) using reagents from cDNA synthesis kit, SYBR Green PCR Master Mix and target-specific TaqMan probes as indicated in Supplementary Table S1. Roche LightCycler 480 II was used to perform quantification analysis of gene expression using the ΔΔCT method as previously described,[13],[16]."}, "[3]": {"system": "cytokines in cell culture supernatants", "assay": "Cytokine analysis, Luminex panel", "assay_type": "cell-based, mouse", "procedure": "Cytokines were analyzed by EVE Technologies (https://www.evetechnologies.com) using the Luminex 31-Plex kit. Cell culture supernatants were diluted twice with PBS and provided in biological triplicates to EVE Technologies via overnight shipment in dry ice. Individual IL-1β and TNFɑ assays were performed using Perkin Elmer AlphaLISA kits, as per Supplementary Table S1 and vendor instructions."}, "[4]": {"system": "bone marrow derived macrophages (BMDMs)", "assay": "Immunoblot of IL-1β and HO-1 in LPS-stimulated BMDMs", "assay_type": "cell-based, mouse", "procedure": "Immunoblotting was performed as previously described with the following modifications. Briefly, cell lysates were obtained in SDS lysis buffer consisting of 2% SDS, 50 mM Tris-HCl (pH 6.8), 100 mM DTT, 5% Ficoll 400, 0.0001% bromophenol blue and a cocktail of protease inhibitors. Lysates were sonicated on ice before heating at 97 °C for 7 min to completely denature the protein. Protein concentration was determined using IR spectroscopy (which is insensitive to high SDS and DTT concentrations) with a Millipore DirectDetect spectrometer. Lysates were equally loaded at 10-15 µg per lane on BioRad TGX Criterion gels (4-15%) and resolved at 300 V in Tris-Glycine running buffer. Proteins were transferred on nitrocellulose membranes using the BioRad TransBlot turbo according to the manufacturer's instructions. Membranes were blocked in fish serum (Aqua Block) or 5% nonfat dry milk in TBS-T (0.05% Tween 20) and probed overnight at 4 °C with primary antibodies as indicated in Supplementary Table S1. The membranes were washed in TBS-T and incubated with secondary antibodies for 1 h at room temperature. After washing, semi-quantitative visualization of the proteins of interest was enabled using an enhanced chemiluminescence reagent as previously described and the Azure C400 western blot imaging system.\nN-acetylcysteine (NAC) served as an antioxidant control. β-Actin was used as a loading control. B) Gene expression analysis in RAW cells treated with 1 µM of vehicle, CCTV and VTCC (peptide nanoparticle control) for 24 h. mRNA expression of mannose receptor (Mrc1), nitric oxide synthase 2 (Nos2), tumor necrosis factor (Tnf), interleukin-1beta (Il1b), and interleukin-6 (Il6) were analyzed. C) Cytokines in cell culture supernatants were analyzed as indicated. […] Metrics of chemotactic behaviour i.e. velocity, distance travelled, and chemotactic index were quantified as presented in bar graphs. […] P values are calculated by t-test and error bars are standard errors of three independent experiments."}}}
{"substance": "CCTV", "values": [{"measurement": "cell velocity", "setting": "[1]; CCL2-induced chemotaxis", "value": "statistically significant inhibition"}, {"measurement": "chemotactic index", "setting": "[1]; CCL2-induced chemotaxis", "value": "statistically significant inhibition"}, {"measurement": "distance traveled", "setting": "[1]; CCL2-induced chemotaxis", "value": "statistically significant inhibition"}, {"measurement": "CCL2-induced monocyte migration", "setting": "[1]; pre-treated BMDMs, 100 nM recombinant mouse CCL2, 12 h, nanoparticles", "value": "potently inhibited CCL2-induced monocyte migration in an antagonistic manner"}, {"measurement": "toxicity of SH-conjugated nanoparticles", "setting": "RAW cells", "value": "very low toxicity"}, {"measurement": "Arg1 mRNA in nanoparticle-targeted plaque cells", "setting": "[2]", "value": "slightly upregulated in CCTV-targeted cells, however this was not significant"}, {"measurement": "Ccl2 mRNA in nanoparticle-targeted plaque cells", "setting": "[2]", "value": "downregulated"}, {"measurement": "Il6 mRNA in nanoparticle-targeted plaque cells", "setting": "[2]", "value": "downregulated"}, {"measurement": "Il1b mRNA expression", "setting": "RAW 264.7 cells", "value": "significantly downregulated"}, {"measurement": "Il6 mRNA expression", "setting": "RAW 264.7 cells", "value": "significantly downregulated"}, {"measurement": "Nos2 mRNA expression", "setting": "RAW 264.7 cells", "value": "significantly downregulated"}, {"measurement": "Tnf mRNA expression", "setting": "RAW 264.7 cells", "value": "unaffected"}, {"measurement": "levels of 14 cytokines in supernatants", "setting": "[3]; Luminex inflammation array", "value": "did not detect significant differences among 14 different cytokines"}, {"measurement": "IL-6 cytokine", "setting": "[3]; not statistically significant", "value": "trend in CCTV-induced downregulation"}, {"measurement": "IL-12p40 cytokine", "setting": "[3]; not statistically significant", "value": "though to a lesser extent"}, {"measurement": "HO-1 levels at high concentration", "setting": "[4]; 50 µM", "value": "the effect was reversed"}, {"measurement": "HO-1 levels (immunoblot)", "setting": "[4]; LPS 100 ng/mL, 16 h", "value": "reduced"}, {"measurement": "IL-1β production (immunoblot)", "setting": "[4]; LPS 100 ng/mL, 16 h", "value": "dose-dependent reduction of IL-1β"}]}
